Q: Which solubility (mole fraction) (in PEGDME 250, 293.15 K) does the source give for `CC(=O)Nc1ccc(O)cc1` here?
A: The solubility (mole fraction) was 0.15.

Q: What about the solubility (mole fraction) (in PEGDME 250, 298.15 K) of the same molecule?
A: The solubility (mole fraction) was 0.174.

Q: And the solubility (mole fraction) (in PEGDME 250, 303.15 K)?
A: The solubility (mole fraction) was 0.196.

Q: What about the solubility (mole fraction) (in PEGDME 250, 308.15 K) of the same molecule?
A: Its solubility (mole fraction) is 0.216.

Q: What about the solubility (mole fraction) (in PEGDME 250, 313.15 K) of the same molecule?
A: Its solubility (mole fraction) is 0.236.

Q: What about the solubility (mole fraction) (in water, 293.15 K) of the same molecule?
A: The solubility (mole fraction) was 0.00151.

Q: And the solubility (mole fraction) (in water, 298.15 K)?
A: The solubility (mole fraction) was 0.00201.

Q: And the solubility (mole fraction) (in water, 303.15 K)?
A: Its solubility (mole fraction) is 0.0022.

Q: What about the solubility (mole fraction) (in water, 308.15 K) of the same molecule?
A: The solubility (mole fraction) was 0.00288.

Q: And the solubility (mole fraction) (in water, 313.15 K)?
A: Its solubility (mole fraction) is 0.00334.

Q: With `O=C(O)c1ccccc1O` as the molecule, how does the solubility (mole fraction) (in PEGDME 250, 293.15 K) read?
A: The solubility (mole fraction) was 0.347.

Q: What about the solubility (mole fraction) (in PEGDME 250, 298.15 K) of the same molecule?
A: The solubility (mole fraction) was 0.382.

Q: What about the solubility (mole fraction) (in PEGDME 250, 303.15 K) of the same molecule?
A: Its solubility (mole fraction) is 0.415.

Q: And the solubility (mole fraction) (in PEGDME 250, 308.15 K)?
A: Its solubility (mole fraction) is 0.45.

Q: What about the solubility (mole fraction) (in PEGDME 250, 313.15 K) of the same molecule?
A: The solubility (mole fraction) was 0.486.

Q: What about the solubility (mole fraction) (in water, 293.15 K) of the same molecule?
A: The solubility (mole fraction) was 0.000205.

Q: And the solubility (mole fraction) (in water, 298.15 K)?
A: The solubility (mole fraction) was 0.000251.

Q: And the solubility (mole fraction) (in water, 303.15 K)?
A: The solubility (mole fraction) was 0.000306.

Q: What about the solubility (mole fraction) (in water, 308.15 K) of the same molecule?
A: Its solubility (mole fraction) is 0.000372.

Q: What about the solubility (mole fraction) (in water, 313.15 K) of the same molecule?
A: Its solubility (mole fraction) is 0.00046.

Source: BigSolDB 2.1
